Results published in article PMC12669040, “Tumour-specific STING agonist synthesis via a two-component prodrug system” (Nature Chemistry, 2025).
Several values for one entry are separate records, joined by “and”; a condition that tells them apart may be missing. Equal entries are not always repeated.

Key:
[1] = Colorimetric alkylation rate constant assay with TNB^2− as non-specific thiol; type: physicochemical; parameters: second-order: unit not given here; details: for remaining [B]: in µM
[2] = Colorimetric alkylation rate constant assay with thiol N1; type: physicochemical; details: for remaining [A]: N1 from calibration curve (N1 in uM); for remaining [A] / remaining [B]: in µM
[3] = Time 2891 sec, [B]0 = 250, Replicates 1-3
[4] = Time 3071 sec, [B]0 = 250, Replicates 1-3
[5] = Time 3252 sec, [B]0 = 250, Replicates 1-3
[6] = Time 3433 sec, [B]0 = 250, Replicates 1-3
[7] = Time 3613 sec, [B]0 = 250, Replicates 1-3

## COc1cc2sc(C(=O)CCC(=O)O)cc2cc1NC(=O)CCl [Compound E2]
[1]; Replicate 1, 723 sec, [B]0 = 250
  remaining [B]: 243.335
[1]; Replicate 1, 903 sec, [B]0 = 250
  remaining [B]: 243.032
[1]; Replicate 1, 1084 sec, [B]0 = 250
  remaining [B]: 242.818
[1]; Replicate 1, 1265 sec, [B]0 = 250
  remaining [B]: 242.415
[1]; Replicate 1, 1445 sec, [B]0 = 250
  remaining [B]: 242.176
[1]; Replicate 1, 1626 sec, [B]0 = 250
  remaining [B]: 241.949
[1]; Replicate 1, 1806 sec, [B]0 = 250
  remaining [B]: 241.659
[1]; Replicate 1, 1988 sec, [B]0 = 250
  remaining [B]: 241.394
[1]; Replicate 1, 2168 sec, [B]0 = 250
  remaining [B]: 241.004
[1]; Replicate 1, 2349 sec, [B]0 = 250
  remaining [B]: 240.752
[1]; Replicate 1, 2530 sec, [B]0 = 250
  remaining [B]: 240.437
[1]; Replicate 1, 2710 sec, [B]0 = 250
  remaining [B]: 240.323
[1]; Replicate 2, 542 sec, [B]0=250
  remaining [B]: 243.63
[1]; Replicate 2, 723 sec, [B]0=250
  remaining [B]: 243.24
[1]; Replicate 2, 903 sec, [B]0=250
  remaining [B]: 242.962
[1]; Replicate 2, 1084 sec, [B]0=250
  remaining [B]: 242.698
[1]; Replicate 2, 1265 sec, [B]0=250
  remaining [B]: 242.446
[1]; Replicate 2, 1445 sec, [B]0=250
  remaining [B]: 242.169
[1]; Replicate 2, 1626 sec, [B]0=250
  remaining [B]: 241.929
[1]; Replicate 2, 1806 sec, [B]0=250
  remaining [B]: 241.639
[1]; Replicate 2, 1988 sec, [B]0=250
  remaining [B]: 241.4
[1]; Replicate 2, 2168 sec, [B]0=250
  remaining [B]: 241.098
[1]; Replicate 2, 2349 sec, [B]0=250
  remaining [B]: 240.858
[1]; Replicate 2, 2530 sec, [B]0=250
  remaining [B]: 240.593
[1]; Replicate 2, 2710 sec, [B]0=250
  remaining [B]: 240.316
[1]; Replicate 3, 723 sec, [B]0=250
  remaining [B]: 242.314
[1]; Replicate 3, 903 sec, [B]0=250
  remaining [B]: 241.999
[1]; Replicate 3, 1084 sec, [B]0=250
  remaining [B]: 241.659
[1]; Replicate 3, 1265 sec, [B]0=250
  remaining [B]: 241.344
[1]; Replicate 3, 1445 sec, [B]0=250
  remaining [B]: 241.041
[1]; Replicate 3, 1626 sec, [B]0=250
  remaining [B]: 240.789
[1]; Replicate 3, 1806 sec, [B]0=250
  remaining [B]: 240.5
[1]; Replicate 3, 1988 sec, [B]0=250
  remaining [B]: 240.273
[1]; Replicate 3, 2168 sec, [B]0=250
  remaining [B]: 240.008
[1]; Replicate 3, 2349 sec, [B]0=250
  remaining [B]: 239.706
[1]; Replicate 3, 2530 sec, [B]0=250
  remaining [B]: 239.492
[1]; Replicate 3, 2710 sec, [B]0=250
  remaining [B]: 239.164
[1]; [3]
  second-order: 0.0004296 and 0.0004811 and 0.0004316
  remaining [B]: 238.912 and 239.97 and 240.014
[1]; [4]
  second-order: 0.0004407 and 0.0004923 and 0.0004463
  remaining [B]: 238.673 and 239.655 and 239.774
[1]; [5]
  second-order: 0.0004524 and 0.0005067 and 0.0004586
  remaining [B]: 238.37 and 239.391 and 239.522
[1]; [6]
  second-order: 0.0004672 and 0.0005187 and 0.0004692
  remaining [B]: 238.118 and 239.164 and 239.207
[1]; [7]
  second-order: 0.0004772 and 0.0005343 and 0.0004876
  remaining [B]: 237.79
[1]; Time 3794 sec, [B]0 = 250, Replicates 1-3
  second-order: 0.0004927 and 0.000547 and 0.0004971
[1]; Time 3974 sec, [B]0 = 250, Replicates 1-3
  second-order: 0.0005034 and 0.0005579 and 0.0005103
[1]; Time 4155 sec, [B]0 = 250, Replicates 1-3
  second-order: 0.0005154 and 0.0005714 and 0.0005211
[1]; Time 4336 sec, [B]0 = 250, Replicates 1-3
  second-order: 0.0005298 and 0.0005836 and 0.0005397
[1]; Time 4516 sec, [B]0 = 250, Replicates 1-3
  second-order: 0.0005443 and 0.0005965 and 0.0005531
[1]; Time 4697 sec, [B]0 = 250, Replicates 1-3
  second-order: 0.0005528 and 0.0006095 and 0.0005659
[1]; Time 4878 sec, [B]0 = 250, Replicates 1-3
  second-order: 0.0005674 and 0.0006188 and 0.0005756
[1]; Time 5058 sec, [B]0 = 250, Replicates 1-3
  second-order: 0.0005809 and 0.0006349 and 0.000586
[1]; Time 5239 sec, [B]0 = 250, Replicates 1-3
  second-order: 0.0005944 and 0.0006468 and 0.0006002
[1]; Time 5419 sec, [B]0 = 250, Replicates 1-3
  second-order: 0.0006061 and 0.0006606 and 0.0006132
[1]; Time 5600 sec, [B]0 = 250, Replicates 1-3
  second-order: 0.0006185 and 0.0006707 and 0.0006275
[1]; Time 5781 sec, [B]0 = 250, Replicates 1-3
  second-order: 0.0006334 and 0.0006852 and 0.0006393
[1]; Time 5961 sec, [B]0 = 250, Replicates 1-3
  second-order: 0.0006459 and 0.0007024 and 0.0006549
[2]; Replicate 1, time 576 sec
  remaining [A]: 17.5091
[2]; Replicate 1, time 576 sec, [B]0 = 250
  remaining [B]: 163.389
[2]; Replicate 1, time 576 sec, second-order plot value
  second-order: 0.009306
[2]; Replicate 1, time 606 sec
  remaining [A]: 16.6256
[2]; Replicate 1, time 606 sec, [B]0 = 250
  remaining [B]: 162.506
[2]; Replicate 1, time 606 sec, second-order plot value
  second-order: 0.009623
[2]; Replicate 2, time 576 sec
  remaining [A]: 15.4999
[2]; Replicate 2, time 576 sec, [B]0=250
  remaining [B]: 162.358
[2]; Replicate 2, time 576 sec, second-order plot value
  second-order: 0.009966
[2]; Replicate 2, time 606 sec
  remaining [A]: 14.5929
[2]; Replicate 2, time 606 sec, [B]0=250
  remaining [B]: 161.451
[2]; Replicate 2, time 606 sec, second-order plot value
  second-order: 0.01034
[2]; Replicate 3, time 576 sec
  remaining [A]: 17.4849
[2]; Replicate 3, time 576 sec, [B]0=250
  remaining [B]: 162.938
[2]; Replicate 3, time 576 sec, second-order plot value
  second-order: 0.009352
[2]; Replicate 3, time 606 sec
  remaining [A]: 16.538
[2]; Replicate 3, time 606 sec, [B]0=250
  remaining [B]: 161.991
[2]; Replicate 3, time 606 sec, second-order plot value
  second-order: 0.009694
[2]; time 0 sec, [B]0 = 250, replicates 1-3
  remaining [B]: 219.942 and 218.28 and 218.112
[2]; time 0 sec, replicates 1-3
  second-order: 0.001589 and 0.00145 and 0.001561
[2]; time 30 sec, [B]0 = 250, replicates 1-3
  remaining [B]: 211.555 and 211.839 and 210.232
[2]; time 30 sec, replicates 1-3
  second-order: 0.002137 and 0.002004 and 0.001994
[2]; time 60 sec, [B]0 = 250, replicates 1-3
  remaining [B]: 204.386 and 206.139 and 202.834
[2]; time 60 sec, replicates 1-3
  second-order: 0.002738 and 0.002556 and 0.002427
[2]; time 91 sec, [B]0 = 250, replicates 1-3
  remaining [B]: 199.029 and 200.952 and 197.251
[2]; time 91 sec, replicates 1-3
  second-order: 0.003264 and 0.003029 and 0.002869
[2]; time 121 sec, [B]0 = 250, replicates 1-3
  remaining [B]: 194.402 and 196.363 and 192.97
[2]; time 121 sec, replicates 1-3
  second-order: 0.003719 and 0.003488 and 0.003307
[2]; time 151 sec, [B]0 = 250, replicates 1-3
  remaining [B]: 190.452 and 192.373 and 188.804
[2]; time 151 sec, replicates 1-3
  second-order: 0.004215 and 0.003925 and 0.003731
[2]; time 182 sec, [B]0 = 250, replicates 1-3
  remaining [B]: 186.908 and 188.84 and 185.431
[2]; time 182 sec, replicates 1-3
  second-order: 0.004663 and 0.00436 and 0.004145
[2]; time 212 sec, [B]0 = 250, replicates 1-3
  remaining [B]: 183.932 and 185.762 and 182.511
[2]; time 212 sec, replicates 1-3
  second-order: 0.005091 and 0.004762 and 0.004542
[2]; time 242 sec, [B]0 = 250, replicates 1-3
  remaining [B]: 181.254 and 182.541 and 179.734
[2]; time 242 sec, replicates 1-3
  second-order: 0.005539 and 0.005157 and 0.005
[2]; time 273 sec, [B]0 = 250, replicates 1-3
  remaining [B]: 178.711 and 180.147 and 177.239
[2]; time 273 sec, replicates 1-3
  second-order: 0.005981 and 0.005566 and 0.005372
[2]; time 303 sec, [B]0 = 250, replicates 1-3
  remaining [B]: 176.384 and 177.582 and 175.227
[2]; time 303 sec, replicates 1-3
  second-order: 0.00637 and 0.005975 and 0.005807
[2]; time 333 sec, [B]0 = 250, replicates 1-3
  remaining [B]: 174.382 and 175.53 and 173.129
[2]; time 333 sec, replicates 1-3
  second-order: 0.006811 and 0.006357 and 0.006186
[2]; time 364 sec, [B]0 = 250, replicates 1-3
  remaining [B]: 172.461 and 173.364 and 171.287
[2]; time 364 sec, replicates 1-3
  second-order: 0.007233 and 0.006753 and 0.006621
[2]; time 394 sec, [B]0 = 250, replicates 1-3
  remaining [B]: 170.756 and 171.54 and 169.7
[2]; time 394 sec, replicates 1-3
  second-order: 0.007627 and 0.007133 and 0.007019
[2]; time 424 sec, [B]0 = 250, replicates 1-3
  remaining [B]: 169.187 and 169.802 and 168.141
[2]; time 424 sec, replicates 1-3
  second-order: 0.008046 and 0.007509 and 0.00743
[2]; time 454 sec, [B]0 = 250, replicates 1-3
  remaining [B]: 167.699 and 168.519 and 166.865
[2]; time 454 sec, replicates 1-3
  second-order: 0.008415 and 0.007894 and 0.007756
[2]; time 485 sec, [B]0 = 250, replicates 1-3
  remaining [B]: 166.401 and 167.208 and 165.59
[2]; time 485 sec, replicates 1-3
  second-order: 0.008811 and 0.008254 and 0.008111
[2]; time 515 sec, [B]0 = 250, replicates 1-3
  remaining [B]: 165.237 and 165.84 and 164.371
[2]; time 515 sec, replicates 1-3
  second-order: 0.009219 and 0.008598 and 0.00851
[2]; time 545 sec, [B]0 = 250, replicates 1-3
  remaining [B]: 164.02 and 164.7 and 163.322
[2]; time 545 sec, replicates 1-3
  second-order: 0.009596 and 0.008984 and 0.008865
